# Test results from ChEMBL document CHEMBL4706534, “1,2,3-Triazole-containing hybrids with potential antibacterial activity against methicillin-resistant Staphylococcus aureus (MRSA)” (Eur J Med Chem, 2020).
# Tests used:
# [1] = tested on: Staphylococcus aureus; test: Antibacterial activity against Methicillin-resistant Staphylococcus aureus 2 incubated for 16 hrs by agar dilution method; format: functional
# [2] = tested on: Staphylococcus aureus; test: Antibacterial activity against Methicillin-resistant Staphylococcus aureus 1 incubated for 16 hrs by agar dilution method; format: functional
# [3] = tested on: Enterococcus; test: Antibacterial activity against Vancomycin-resistant enterococcus 2 incubated for 16 hrs by agar dilution method; format: functional
# [4] = tested on: Enterococcus; test: Antibacterial activity against vancomycin resistant Enterococcus ATCC 51299; format: functional
# [5] = tested on: Enterococcus faecalis; test: Antibacterial activity against vancomycin susceptible Enterococcus faecalis ATCC 29212; format: functional
# [6] = tested on: Staphylococcus aureus; test: Antibacterial activity against Methicillin-resistant Staphylococcus aureus ATCC 33591; format: functional, organism-based
# [7] = tested on: Staphylococcus aureus; test: Antibacterial activity against methicillin-resistant Staphylococcus aureus; format: functional
# [8] = tested on: Staphylococcus aureus; test: Antibacterial activity against Staphylococcus aureus ATCC 25923 by CLSI-based broth microdilution method; format: functional
# [9] = tested on: Staphylococcus aureus; test: Antibacterial activity against Methicillin-resistant Staphylococcus aureus KU60; format: functional
# [10] = tested on: Staphylococcus aureus; test: Resistance index, ratio of MIC for antibacterial activity against Staphylococcus aureus ATCC 43300 incubated for 16 to 18 hrs by CLSI based assay to MIC for antibacterial activity against Staphylococcus aureus DSM 20231 incubated for 16 to 18 hrs by CLSI based assay; format: functional; settings: time 16-18 hrs
# [11] = tested on: Staphylococcus aureus; test: Antibacterial activity against methicillin-resistant Staphylococcus aureus ATCC 43300 incubated for 16 to 18 hrs by CLSI based assay; format: functional; settings: time 16-18 hrs
# [12] = tested on: Staphylococcus aureus; test: Antibacterial activity against Methicillin-resistant Staphylococcus aureus N315 incubated for 24 hrs by two fold serial dilution method; format: functional
# [13] = tested on: Staphylococcus aureus; test: Antibacterial activity against Staphylococcus aureus ATCC 25923 incubated for 24 hrs by two fold serial dilution method; format: functional
# [14] = tested on: Staphylococcus aureus; test: Antibacterial activity against methicillin-sensitive Staphylococcus aureus ATCC 29213 by broth microdilution method; format: functional
# [15] = tested on: Staphylococcus aureus; test: Antibacterial activity against methicillin-resistant Staphylococcus aureus ATCC 33591 by broth microdilution method; format: functional
# [16] = tested on: Staphylococcus aureus; test: Resistance index, ratio of MIC for antibacterial activity against methicillin-resistant Staphylococcus aureus […] to MIC for antibacterial activity against methicillin-sensitive Staphylococcus aureus; format: functional
smiles,measurement,setting,value
CC(C)C[C@H](C(=O)N[C@@H]1Cc2ccc(c(Cl)c2)Oc2cc3cc(c2O[C@@H]2O[C@H](CO)[C@@H](O)[C@H](O)[C@H]2O[C@H]2C[C@](C)(NCCCCCCCc4ccccc4)[C@H](O)[C@H](C)O2)Oc2ccc(cc2Cl)[C@@H](O)[C@@H]2NC(=O)[C@H](NC(=O)[C@@H]3NC(=O)[C@H](CC(=O)O)NC1=O)c1ccc(O)c(c1)-c1c(O)cc(O)cc1[C@H](C(=O)O)NC2=O)n1cc(COc2ccc(-c3ccc(OCc4cn([C@H](CC(C)C)C(=O)N[C@@H]5Cc6ccc(c(Cl)c6)Oc6cc7cc(c6O[C@@H]6O[C@H](CO)[C@@H](O)[C@H](O)[C@H]6O[C@H]6C[C@](C)(NCCCCCCCc8ccccc8)[C@H](O)[C@H](C)O6)Oc6ccc(cc6Cl)[C@@H](O)[C@@H]6NC(=O)[C@H](NC(=O)[C@@H]7NC(=O)[C@H](CC(=O)O)NC5=O)c5ccc(O)c(c5)-c5c(O)cc(O)cc5[C@H](C(=O)O)NC6=O)nn4)cc3)cc2)nn1,MIC,[1],12.5 µg/mL
same,MIC,[2],12.5 µg/mL
same,MIC,[3],25 µg/mL
CN[C@H](CC(C)C)C(=O)N[C@@H]1Cc2ccc(c(Cl)c2)Oc2cc3cc(c2O[C@@H]2O[C@H](CO)[C@@H](O)[C@H](O)[C@H]2O[C@H]2C[C@](C)(N)[C@H](O)[C@H](C)O2)Oc2ccc(cc2Cl)[C@@H](O)[C@@H]2NC(=O)[C@H](NC(=O)[C@@H]3NC(=O)[C@H](CC(=O)O)NC1=O)c1ccc(O)c(c1)-c1c(O)cc(O)cc1[C@H](C(=O)NCCCCCc1cn(CCOCCOCCOCCNC(=O)[C@@H]3NC(=O)[C@H]4NC(=O)[C@H](NC(=O)[C@@H]5NC(=O)[C@H](CC(=O)O)NC(=O)[C@H](NC(=O)[C@@H](CC(C)C)NC)Cc6ccc(c(Cl)c6)Oc6cc5cc(c6O[C@@H]5O[C@H](CO)[C@@H](O)[C@H](O)[C@H]5O[C@H]5C[C@](C)(N)[C@H](O)[C@H](C)O5)Oc5ccc(cc5Cl)[C@H]4O)c4ccc(O)c(c4)-c4c(O)cc(O)cc43)nn1)NC2=O,MIC,[4],0.5 µg/mL
same,MIC,[5],0.5 µg/mL
same,MIC,[6],0.5 µg/mL
CN[C@H](CC(C)C)C(=O)N[C@@H]1Cc2ccc(c(Cl)c2)Oc2cc3cc(c2O[C@@H]2O[C@H](CO)[C@@H](O)[C@H](O)[C@H]2O[C@H]2C[C@](C)(N)[C@H](O)[C@H](C)O2)Oc2ccc(cc2Cl)[C@@H](O)[C@@H]2NC(=O)[C@H](NC(=O)[C@@H]3NC(=O)[C@H](CC(=O)O)NC1=O)c1ccc(O)c(c1)-c1c(O)cc(O)cc1[C@H](C(=O)NCCCCc1cn(CCOCCOCCOCCNC(=O)[C@@H]3NC(=O)[C@H]4NC(=O)[C@H](NC(=O)[C@@H]5NC(=O)[C@H](CC(=O)O)NC(=O)[C@H](NC(=O)[C@@H](CC(C)C)NC)Cc6ccc(c(Cl)c6)Oc6cc5cc(c6O[C@@H]5O[C@H](CO)[C@@H](O)[C@H](O)[C@H]5O[C@H]5C[C@](C)(N)[C@H](O)[C@H](C)O5)Oc5ccc(cc5Cl)[C@H]4O)c4ccc(O)c(c4)-c4c(O)cc(O)cc43)nn1)NC2=O,MIC,[4],0.5 µg/mL
same,MIC,[5],0.5 µg/mL
same,MIC,[6],0.5 µg/mL
COc1c(N2C[C@@H]3CCCN[C@@H]3C2)c(F)cc2c(=O)c(C(=O)O)cn(C3CC3)c12 [MOXIFLOXACIN],MIC,[7],8 µg/mL
CC1(C)S[C@@H]2[C@H](NC(=O)[C@H](N)c3ccccc3)C(=O)N2[C@H]1C(=O)O [AMPICILLIN],MIC,[8],4 µg/mL
CN[C@H](CC(C)C)C(=O)N[C@@H]1Cc2ccc(c(Cl)c2)Oc2cc3cc(c2O[C@@H]2O[C@H](CO)[C@@H](O)[C@H](O)[C@H]2O[C@H]2C[C@](C)(N)[C@H](O)[C@H](C)O2)Oc2ccc(cc2Cl)[C@@H](O)[C@@H]2NC(=O)[C@H](NC(=O)[C@@H]3NC(=O)[C@H](CC(=O)O)NC1=O)c1ccc(O)c(c1)-c1c(O)cc(O)cc1[C@H](C(=O)NCCCc1cn(CCOCCOCCOCCNC(=O)[C@@H]3NC(=O)[C@H]4NC(=O)[C@H](NC(=O)[C@@H]5NC(=O)[C@H](CC(=O)O)NC(=O)[C@H](NC(=O)[C@@H](CC(C)C)NC)Cc6ccc(c(Cl)c6)Oc6cc5cc(c6O[C@@H]5O[C@H](CO)[C@@H](O)[C@H](O)[C@H]5O[C@H]5C[C@](C)(N)[C@H](O)[C@H](C)O5)Oc5ccc(cc5Cl)[C@H]4O)c4ccc(O)c(c4)-c4c(O)cc(O)cc43)nn1)NC2=O,MIC,[4],0.5 µg/mL
same,MIC,[5],0.5 µg/mL
same,MIC,[6],0.5 µg/mL
O=C(c1ccccc1)N1CCN(c2ccc(N3C[C@H](Cn4ccnn4)OC3=O)cc2F)CC1,MIC,[9],0.25 µg/mL
N=C(N)NCCC[C@H](NC(=O)[C@H](Cc1c[nH]c2ccccc12)NC(=O)[C@H](CCCNC(=N)N)NC(=O)[C@H](Cc1c[nH]c2ccccc12)NC(=O)[C@@H](N)CCCNC(=N)N)C(=O)N[C@@H](Cc1c[nH]c2ccccc12)C(=O)N[C@@H](CCCCn1cc(COc2ccccc2)nn1)C(N)=O,Ratio,[10],0.5
same,MIC,[11],2.7 µM
O=c1c2ccc(Cl)cc2ncn1CC(O)Cn1nnc2ccccc21 (stereo not drawn),MIC,[12],≥ 64 µg/mL
same,MIC,[13],≥ 64 µg/mL
CC(=O)N[C@H]1[C@H](O[C@@H]2c3ccc(c(Cl)c3)Oc3cc4cc(c3O)Oc3ccc(cc3Cl)C[C@H]3NC(=O)[C@H](n5cc(COC[C@H]6O[C@@H]7OC(C)(C)O[C@@H]7[C@H]7OC(C)(C)O[C@H]76)nn5)c5ccc(O)c(c5)Oc5cc(O)cc(c5)[C@H](NC3=O)C(=O)N[C@H]4C(=O)N[C@H]3C(=O)N[C@@H]2C(=O)N[C@@H](C(=O)O)c2cc(O)cc(O)c2-c2cc3ccc2O)O[C@H](CO)[C@@H](O)[C@@H]1O,MIC,[14],0.5 µg/mL
same,MIC,[15],0.5 µg/mL
CC(C)NC(=N)c1ccc2[nH]c(-c3ccc(OCc4cn(-c5ccccc5)nn4)cc3)nc2c1,Ratio,[16],0.125
same,MIC,[8],8 µg/mL
